The text below walks through data of patent US6468992B1, “Phosphonic acid diester derivatives” (Otsuka Pharmaceutical Factory, Inc., priority 1998, dated 2002).

The subject of the test is male Wister rats. The test is described as follows: blood glucose-lowering activity in dexamethasone-treated rats. Conditions: male Wister rats given dexamethasone 0.5 mg/kg i.p. once a day for 4 days; test compound 100 mg/kg orally daily; serum glucose on day 4, 4 hours after dexamethasone, fasted 24 hours; versus control and normal groups. It counts as in vivo. The procedure:
The compounds of the present invention were tested for blood glucose-lowering activities in rats in the following manner.
That is, Dexamethasone (Decadron S injectable solution:made by Banyu Pharmaceutical Co.,Ltd.) was administered intraperitoneally to a group (test group) of 5 male Wister rats (6 weeks old) at a daily dose of 0.5 mg/kg, once a day for 4 days. Immediately after the administration of dexamethasone, a test compound (100 mg/kg) dissolved in 5% gum arabic solution was administered orally to rats daily. On day 4, the rats were decapitated 4 hours after the administration of dexamethasone. Blood was collected and centrifuged (3000 rpm, […], 15 minutes), then the glucose level in the obtained serum was measured by the use of Glucose cII Test Wako (made by Wako Pure Chemical Industries, Ltd.). The rats were maintained on a diet ad libitum and then fasted 24 hours before the collection of blood.
Animals which were given 5% gum arabic solution instead of a test compound were served as a control group and those which were maintained merely on a diet ad libitum were served as a normal group. The serum glucose levels of them were measured according to the same manner as above. The decrease rate of blood glucose level was determined by the value (mean value) of each group from the following equation. [formula]

Take `CCOP(=O)(CCCC(=O)Nc1cc(Cl)cc(Cl)c1C(=O)NC)OCC` [Example 7, diethyl 3-[N-[3,5-dichloro-2-(N-methylcarbamoyl)phenyl]carbamoyl]propylphosphonate]: the “Decrease rate (%) in blood glucose level” value is listed as 30%. To `CCOP(=O)(CCCC(=O)Nc1c(Cl)cc(Cl)cc1C(=O)NC)OCC` [Example 8, diethyl 3-[N-[4,6-dichloro-2-(N-methylcarbamoyl)phenyl]-carbamoyl]propylphosphonate] belongs 39%; to `CCOP(=O)(CCCC(=O)Nc1cccc(Cl)c1C(=O)Nc1ccccc1)OCC` [Example 31, diethyl 3-[N-[3-chloro-2-(N-phenylcarbamoyl)phenyl]carbamoyl]propylphosphonate], 59%; to `CCOP(=O)(OCC)C(=O)Nc1cc(Cl)ccc1C(=O)NC` [Example 51, Diethyl N-[5-chloro-2-(N-methylcarbamoyl)phenyl]carbamoyl phosphonate], 17%.
